Patent publication US8754234B2, “Chiral 2-(benzylsulfinyl)thiazole derivatives and 2-[(1H-pyrazol-4-ylmethyl)sulfinyl]thiazole derivatives, processes for their preparation and their use as herbicides and plant growth regulators” (Bayer Cropscience AG, priority 2007, dated 2014)

Legend:
Format in all cases: in vivo
[1] = tested on: Avena fatua, Stellaria media, Echinochloa crus galli, Lolium multiflorum, Setaria viridis, Abutilon theophrasti, Amaranthus retroflexus, Viola tricolor …; assay: Pre-emergence herbicidal effect, harmful plants; settings: pre-emergence method, application rate of 0.32 kg and less of active substance per hectare
Text: (§1) Seeds of monocotyledonous or dicotyledonous weed plants or crop plants are placed in sandy loam in wood-fiber pots and covered with soil. The compounds according to the invention, formulated in the form of wettable powders (WP), are then applied as aqueous suspension at a water application rate of 600 l/ha (converted) with the addition of 0.2% of wetting agent to the surface of the covering soil. After the treatment, the pots are placed in a greenhouse and kept under good growth conditions for the test plants. After about 3 weeks, the effect of the preparations is scored visually in comparison with untreated controls (herbicidal effect in percent (%): 100% activity=the plants have died, 0% activity=like control plants).

[2] = tested on: Avena fatua, Echinochloa crus galli, Lolium multiflorum, Setaria viridis and Alopecurus myosuroides; assay: Post-emergence herbicidal effect, harmful plants; settings: post-emergence method, application rate of 0.32 kg and less of active substance per hectare
Procedure: (§2) Seeds of monocotyledonous and dicotyledonous weed and crop plants are placed in sandy loam in wood fibre pots, covered with soil and cultivated in a greenhouse under good growth conditions. 2 to 3 weeks after sowing, the test plants are treated at the one-leaf stage. The compounds according to the invention, formulated in the form of wettable powders (WP), are then applied as aqueous suspension at a water application rate of 600 l/ha (converted) with the addition of 0.2% of wetting agent to the green parts of the plants. After the test plants have been kept in the greenhouse under optimum growth conditions for about 3 weeks, the activity of the preparations is rated visually in comparison to untreated controls (herbicidal activity in percent (%): 100% activity=the plants have died, 0% activity=like control plants).

[3] = tested on: Lolium multiflorum (Italian ryegrass); assay: Pre-emergence herbicidal effect, Italian ryegrass; settings: after about 3 weeks
Text: as §1

[4] = tested on: Setaria viridis (green foxtail); assay: Pre-emergence herbicidal effect, green foxtail; settings: after about 3 weeks
Text: as §1

[5] = tested on: Brassica napus (winter rape); assay: Pre-emergence crop plant compatibility, winter rape; settings: after about 3 weeks
Text: as §1

[6] = tested on: Alopecurus myosuroides (black-grass); assay: Pre-emergence herbicidal effect, black-grass; settings: after about 3 weeks
Text: as §1

Zea mays (corn) = assay: Post-emergence crop plant compatibility, corn; settings: after about 3 weeks
Procedure: as §2

Avena fatua = assay: Post-emergence herbicidal effect, Avena fatua; settings: after about 3 weeks
Procedure: as §2

[7] = tested on: Lolium multiflorum (Italian ryegrass); assay: Post-emergence herbicidal effect, Italian ryegrass; settings: after about 3 weeks
Procedure: as §2

[8] = tested on: Setaria viridis (green foxtail); assay: Post-emergence herbicidal effect, green foxtail; settings: after about 3 weeks
Procedure: as §2

Polygunum convolvulus = assay: Post-emergence herbicidal effect, Polygunum convolvulus; settings: after about 3 weeks
Procedure: as §2

Stellaria media = assay: Post-emergence herbicidal effect, Stellaria media; settings: after about 3 weeks
Procedure: as §2

[9] = tested on: Triticum aestivum (summer wheat); assay: Pre-emergence crop plant compatibility, summer wheat; settings: scored visually after about 3 weeks
Text: as §1

[10] = tested on: Echinochloa crus-galli (barnyard grass); assay: Pre-emergence herbicidal effect, barnyard grass; settings: after about 3 weeks
Text: as §1

[11] = tested on: Viola tricolor (wild pansy); assay: Pre-emergence herbicidal effect, wild pansy; settings: after about 3 weeks
Text: as §1

[12] = 20 g of active compound/ha, formula (Ib) table
[13] = 80 g of active compound/ha, formula (Ib) table
[14] = 20 g of active compound/ha, formula (Ia) table
[15] = 80 g of active compound/ha, formula (Ia) table

## [O-][S@@+](Cc1c(Cl)cccc1Cl)c1ncc(Br)s1 [Compound 270]
[1]
  herbicidal activity against harmful plants: very good herbicidal activity
[2]
  herbicidal activity against harmful plants: very good herbicidal activity

## Cn1nc(C(F)(F)F)c(C[S@+]([O-])c2ncc(Br)s2)c1OC(F)F [Compound 2637, 5-Bromo-2-[(S)-{[5-(difluoromethoxy)-1-methyl-3-(trifluoromethyl)-1H-pyrazol-4-yl]methyl}sulfinyl]-1,3-thiazole]
[3]; [12]
  herbicidal effect in percent, LOLMU: 10%
[3]; [13]
  herbicidal effect in percent, LOLMU: 100%
[4]; [12]
  herbicidal effect in percent, SETVI: 80%
[4]; [13]
  herbicidal effect in percent, SETVI: 90%
[5]; 20 g of active compound/ha
  herbicidal effect in percent, BRSNW: 0%
[5]; 80 g of active compound/ha
  herbicidal effect in percent, BRSNW: 0%
[6]; 20 g of active compound/ha
  herbicidal effect in percent, ALOMY: 60%
[6]; 80 g of active compound/ha
  herbicidal effect in percent, ALOMY: 90%
[1]
  herbicidal activity against harmful plants: very good herbicidal activity
[2]
  herbicidal activity against harmful plants: very good herbicidal activity

## Cn1nc(C(F)(F)F)c(C[S@@+]([O-])c2ncc(Br)s2)c1OCC(F)(F)F [Compound 3728]
[1]
  herbicidal activity against harmful plants: very good herbicidal activity
Zea mays (corn); 20 g of active compound/ha
  herbicidal activity in percent, ZEAMX: 0%
Zea mays (corn); 80 g of active compound/ha
  herbicidal activity in percent, ZEAMX: 0%
Avena fatua; 20 g of active compound/ha
  herbicidal activity in percent, AVEFA: 0%
Avena fatua; 80 g of active compound/ha
  herbicidal activity in percent, AVEFA: 10%
[7]; 20 g of active compound/ha
  herbicidal activity in percent, LOLMU: 0%
[7]; 80 g of active compound/ha
  herbicidal activity in percent, LOLMU: 0%
[8]; 20 g of active compound/ha
  herbicidal activity in percent, SETVI: 10%
[8]; 80 g of active compound/ha
  herbicidal activity in percent, SETVI: 10%
Polygunum convolvulus; 80 g of active compound/ha
  herbicidal activity in percent, POLCO: 10%
Stellaria media; 20 g of active compound/ha
  herbicidal activity in percent, STEME: 0%
Stellaria media; 80 g of active compound/ha
  herbicidal activity in percent, STEME: 10%
[2]
  herbicidal activity against harmful plants: very good herbicidal activity

## [O-][S@+](Cc1c(Cl)cccc1Cl)c1ncc(Cl)s1 [Compound 1375]
[9]; 20 g of active compound/ha
  herbicidal effect in percent, TRZAS: 0%
[9]; 80 g of active compound/ha
  herbicidal effect in percent, TRZAS: 0%
[10]; 20 g of active compound/ha
  herbicidal effect in percent, ECHCG: 0%
[10]; 80 g of active compound/ha
  herbicidal effect in percent, ECHCG: 80%
[3]; [14]
  herbicidal effect in percent, LOLMU: 0%
[3]; [15]
  herbicidal effect in percent, LOLMU: 60%
[4]; [14]
  herbicidal effect in percent, SETVI: 0%
[4]; [15]
  herbicidal effect in percent, SETVI: 20%
[11]; 20 g of active compound/ha
  herbicidal effect in percent, VIOTR: 60%
[11]; 80 g of active compound/ha
  herbicidal effect in percent, VIOTR: 80%
[1]
  herbicidal activity against harmful plants: very good herbicidal activity
[2]
  herbicidal activity against harmful plants: very good herbicidal activity

## Cn1nc(C(F)(F)F)c(C[S@+]([O-])c2ncc(Cl)s2)c1OC(F)F [Compound 2555]
[1]
  herbicidal activity against harmful plants: very good herbicidal activity
[2]
  herbicidal activity against harmful plants: very good herbicidal activity

## Cn1nc(C(F)(F)F)c(C[S@@+]([O-])c2ncc(Cl)s2)c1OC(F)F [Compound 3643]
[1]
  herbicidal activity against harmful plants: very good herbicidal activity
[2]
  herbicidal activity against harmful plants: very good herbicidal activity

## Cn1nc(C(F)(F)F)c(C[S@+]([O-])c2ncc(I)s2)c1OC(F)F [Compound 2719]
[1]
  herbicidal activity against harmful plants: very good herbicidal activity
[2]
  herbicidal activity against harmful plants: very good herbicidal activity

## Cn1nc(C(F)(F)F)c(C[S+]([O-])c2ncc(Br)s2)c1OC(F)F (racemic) [Racemate of 2637 (S config.) and 3725 (R config.), 5-bromo-2-({[5-(difluoromethoxy)-1-methyl-3-(trifluoromethyl)-1H-pyrazol-4-yl]methyl}sulfinyl)-1,3-thiazole]
[3]; [12]
  herbicidal effect in percent, LOLMU: 0%
[3]; [13]
  herbicidal effect in percent, LOLMU: 80%
[4]; [12]
  herbicidal effect in percent, SETVI: 0%
[4]; [13]
  herbicidal effect in percent, SETVI: 80%
[5]; 20 g of active compound/ha
  herbicidal effect in percent, BRSNW: 0%
[5]; 80 g of active compound/ha
  herbicidal effect in percent, BRSNW: 0%
[6]; 20 g of active compound/ha
  herbicidal effect in percent, ALOMY: 30%
[6]; 80 g of active compound/ha
  herbicidal effect in percent, ALOMY: 90%

## Cn1nc(C(F)(F)F)c(C[S@+]([O-])c2ncc(Br)s2)c1Cl [Compound 2632, 5-Bromo-2-[(S)-{[5-chloro-1-methyl-3-(trifluoromethyl)-1H-pyrazol-4-yl]methyl}sulfinyl]-1,3-thiazole]
[1]
  herbicidal activity against harmful plants: very good herbicidal activity
[2]
  herbicidal activity against harmful plants: very good herbicidal activity

## [O-][S@+](Cc1c(Cl)cccc1Cl)c1ncc(Br)s1 [Compound 1460]
[1]
  herbicidal activity against harmful plants: very good herbicidal activity

## [O-][S@+](Cc1c(F)cccc1F)c1ncc(Br)s1 [Compound 1449, 5-bromo-2-[(R)-(2,6-difluorobenzyl)sulfinyl]-1,3-thiazole]
[1]
  herbicidal activity against harmful plants: very good herbicidal activity
[2]
  herbicidal activity against harmful plants: very good herbicidal activity

## Cn1nc(C(F)(F)F)c(C[S@@+]([O-])c2ncc(Br)s2)c1OC(F)F [Compound 3725, 5-bromo-2-[(R)-{[5-(difluoromethoxy)-1-methyl-3-(trifluoromethyl)-1H-pyrazol-4-yl]methyl}sulfinyl]-1,3-thiazole]
[3]; [12]
  herbicidal effect in percent, LOLMU: 0%
[3]; [13]
  herbicidal effect in percent, LOLMU: 0%
[4]; [12]
  herbicidal effect in percent, SETVI: 0%
[4]; [13]
  herbicidal effect in percent, SETVI: 0%
[5]; 20 g of active compound/ha
  herbicidal effect in percent, BRSNW: 0%
[5]; 80 g of active compound/ha
  herbicidal effect in percent, BRSNW: 0%
[6]; 20 g of active compound/ha
  herbicidal effect in percent, ALOMY: 0%
[6]; 80 g of active compound/ha
  herbicidal effect in percent, ALOMY: 20%
[1]
  herbicidal activity against harmful plants: very good herbicidal activity
[2]
  herbicidal activity against harmful plants: very good herbicidal activity

## [O-][S@@+](Cc1c(Cl)cccc1Cl)c1ncc(Cl)s1 [Compound 185]
[9]; 20 g of active compound/ha
  herbicidal effect in percent, TRZAS: 0%
[9]; 80 g of active compound/ha
  herbicidal effect in percent, TRZAS: 10%
[10]; 20 g of active compound/ha
  herbicidal effect in percent, ECHCG: 90%
[10]; 80 g of active compound/ha
  herbicidal effect in percent, ECHCG: 100%
[3]; [14]
  herbicidal effect in percent, LOLMU: 70%
[3]; [15]
  herbicidal effect in percent, LOLMU: 90%
[4]; [14]
  herbicidal effect in percent, SETVI: 70%
[4]; [15]
  herbicidal effect in percent, SETVI: 100%
[11]; 20 g of active compound/ha
  herbicidal effect in percent, VIOTR: 60%
[11]; 80 g of active compound/ha
  herbicidal effect in percent, VIOTR: 70%
[1]
  herbicidal activity against harmful plants: very good herbicidal activity
[2]
  herbicidal activity against harmful plants: very good herbicidal activity

## [O-][S@@+](Cc1c(F)cccc1F)c1ncc(Br)s1 [Compound 259, 5-Bromo-2-[(S)-(2,6-difluorobenzyl)sulfinyl]-1,3-thiazole]
[1]
  herbicidal activity against harmful plants: very good herbicidal activity
[2]
  herbicidal activity against harmful plants: very good herbicidal activity

## Cn1nc(C(F)(F)F)c(C[S@+]([O-])c2ncc(Br)s2)c1OCC(F)(F)F [Compound 2640]
[1]
  herbicidal activity against harmful plants: very good herbicidal activity
Zea mays (corn); 20 g of active compound/ha
  herbicidal activity in percent, ZEAMX: 0%
Zea mays (corn); 80 g of active compound/ha
  herbicidal activity in percent, ZEAMX: 0%
Avena fatua; 20 g of active compound/ha
  herbicidal activity in percent, AVEFA: 20%
Avena fatua; 80 g of active compound/ha
  herbicidal activity in percent, AVEFA: 90%
[7]; 20 g of active compound/ha
  herbicidal activity in percent, LOLMU: 60%
[7]; 80 g of active compound/ha
  herbicidal activity in percent, LOLMU: 100%
[8]; 20 g of active compound/ha
  herbicidal activity in percent, SETVI: 100%
[8]; 80 g of active compound/ha
  herbicidal activity in percent, SETVI: 100%
Polygunum convolvulus; 20 g of active compound/ha
  herbicidal activity in percent, POLCO: 20%
Polygunum convolvulus; 80 g of active compound/ha
  herbicidal activity in percent, POLCO: 100%
Stellaria media; 20 g of active compound/ha
  herbicidal activity in percent, STEME: 10%
Stellaria media; 80 g of active compound/ha
  herbicidal activity in percent, STEME: 90%
[2]
  herbicidal activity against harmful plants: very good herbicidal activity

## Cn1nc(C(F)(F)F)c(C[S@@+]([O-])c2ncc(Br)s2)c1Cl [Compound 3720, 5-bromo-2-[(R)-{[5-chloro-1-methyl-3-(trifluoromethyl)-1H-pyrazol-4-yl]methyl}sulfinyl]-1,3-thiazole]
[1]
  herbicidal activity against harmful plants: very good herbicidal activity
[2]
  herbicidal activity against harmful plants: very good herbicidal activity
